Active and inactive are the calls of the source. The calls are words filed in the database; no cut-off is given here.
How the values were obtained:
Spodoptera exigua [1] = experiment: Insecticidal activity against Spodoptera exigua; type: functional
Spodoptera exigua [2] = experiment: Insecticidal activity against Spodoptera exigua assessed as increase of larval mortality at 5 umol/g in artificial diet after 9 days relative to control; type: functional
Spodoptera exigua [3] = experiment: Insecticidal activity against Spodoptera exigua assessed as reduction of weight at 5 umol/g in artificial diet after 9 days relative to control; type: functional, organism-based

| SMILES | LC50 (Spodoptera exigua [1]) [µg/g] | Activity (Spodoptera exigua [2]) [%] | Activity (Spodoptera exigua [3]) |
| --- | --- | --- | --- |
| CCCCCCCCCCCCCCCc1ccco1 | 1031 | 93 |  |
| CCCCCCCCCCCCCCCCCCc1ccco1 |  | 68 |  |
| CCCCCCCCCCCCCCCCCc1ccco1 [2-(HEPTADECYL)FURAN] | 1206 | 95 |  |
| CCCCCCCCCCCCCCc1ccco1 |  | <50 | Active |

From ChEMBL document CHEMBL1158006, “Alkylfurans: effects of alkyl side-chain length on insecticidal activity” (1999)
